Test results taken from paper PMC5529566, “The cryo-EM structure of gastric H^+,K^+-ATPase with bound BYK99, a high-affinity member of K^+-competitive, imidazo[1,2-a]pyridine inhibitors” (Scientific Reports, 2017).
“And” between values parts separate entries of the source, which are not always exact repeats. Identical values can stand only once. Blank lines part the entries; values can stand above or below the compound they belong to.

What was measured:
[1] = system: H^+,K^+-ATPase L809F; conditions: cited from earlier work
[2] = molecular target: H^+,K^+-ATPase A335C/C813A; set-up: method as in PMID 12379118; conditions: cited from earlier work
[3] = system: H^+,K^+-ATPase Y799A; set-up: method as in PMID 14699149; conditions: Y799A vs wild-type; cited from earlier work
[4] = pKa and protonation of imidazo[1,2-a]pyridine; assay type: physicochemical; conditions: at pH 7.0 of the ATPase assays
[5] = system: H^+,K^+-ATPase Y799F; set-up: method as in PMID 14699149; conditions: cited from earlier work
[6] = molecular target: H^+,K^+-ATPase D137N/N138D (Sus scrofa, UniProt P19156, D138N/N139D); experiment: ATPase assay, D137N/N138D mutant; conditions: D137N/N138D
[7] = molecular target: H^+,K^+-ATPase D137A (Sus scrofa, UniProt P19156, D138A); experiment: ATPase assay, D137A mutant
[8] = molecular target: H^+,K^+-ATPase L809F (Sus scrofa, UniProt P19156, L810F); experiment: ATPase assay, L809F mutant
[9] = molecular target: H^+,K^+-ATPase Y799F (Sus scrofa, UniProt P19156, Y800F); experiment: ATPase assay, Y799F mutant
[10] = molecular target: H^+,K^+-ATPase D137I (Sus scrofa, UniProt P19156, D138I); experiment: ATPase assay, D137I mutant
[11] = molecular target: H^+,K^+-ATPase (Sus scrofa, UniProt P19156); experiment: Dose-dependent inhibition of H^+,K^+-ATPase activity in the presence of 10 mM KCl
Description: Reactions were initiated by incubating at 37 °C using a thermal cycler, and maintained for 1 to 5 h (depending on the activity). Reactions were terminated by withdrawing 40 μL from the 80 μL reactant, and mixing with 80 μL of stop solution comprising 6% ascorbic acid and 2% ammonium molybdate in 1 N HCl, followed by the addition of 120 μL of 2% sodium arsenate, 2% sodium citrate, and 2% acetic acid. The amount of released inorganic phosphate was determined colorimetrically[39] from absorbance at 850 nm by the microplate reader (TECAN).

[12] = molecular target: H^+,K^+-ATPase L141I (Sus scrofa, UniProt P19156, L142I); experiment: ATPase assay, L141I mutant
[13] = molecular target: H^+,K^+-ATPase Y799A (Sus scrofa, UniProt P19156, Y800A); experiment: ATPase assay, Y799A mutant
[14] = molecular target: H^+,K^+-ATPase N138L (Sus scrofa, UniProt P19156, N139L); experiment: ATPase assay, N138L mutant
[15] = molecular target: H^+,K^+-ATPase N138A (Sus scrofa, UniProt P19156, N139A); experiment: ATPase assay, N138A mutant
[16] = molecular target: H^+,K^+-ATPase A335G (Sus scrofa, UniProt P19156, A336G); experiment: ATPase assay, A335G mutant
[17] = molecular target: H^+,K^+-ATPase L139I (Sus scrofa, UniProt P19156, L140I); experiment: ATPase assay, L139I mutant
[18] = molecular target: H^+,K^+-ATPase D136I (Sus scrofa, UniProt P19156, D137I); experiment: ATPase assay, D136I mutant
[19] = molecular target: H^+,K^+-ATPase L139A (Sus scrofa, UniProt P19156, L140A); experiment: ATPase assay, L139A mutant
[20] = molecular target: H^+,K^+-ATPase D136F (Sus scrofa, UniProt P19156, D137F); experiment: ATPase assay, D136F mutant
[21] = molecular target: H^+,K^+-ATPase D137L (Sus scrofa, UniProt P19156, D138L); experiment: ATPase assay, D137L mutant
[22] = molecular target: H^+,K^+-ATPase D136A (Sus scrofa, UniProt P19156, D137A); experiment: ATPase assay, D136A mutant
[23] = molecular target: H^+,K^+-ATPase Y140F (Sus scrofa, UniProt P19156, Y141F); experiment: ATPase assay, Y140F mutant
[24] = molecular target: H^+,K^+-ATPase A335C/C813A (Sus scrofa, UniProt P19156, A336C/C814A); experiment: ATPase assay, A335C/C813A mutant
[25] = molecular target: H^+,K^+-ATPase N138I (Sus scrofa, UniProt P19156, N139I); experiment: ATPase assay, N138I mutant
[26] = molecular target: H^+,K^+-ATPase D136L (Sus scrofa, UniProt P19156, D137L); experiment: ATPase assay, D136L mutant
[27] = molecular target: H^+,K^+-ATPase Y140A (Sus scrofa, UniProt P19156, Y141A); experiment: ATPase assay, Y140A mutant
[28] = molecular target: H^+,K^+-ATPase N138D (Sus scrofa, UniProt P19156, N139D); experiment: ATPase assay, N138D mutant
[29] = molecular target: T1, H^+,K^+-ATPase D137E (Sus scrofa, UniProt P19156, D138E); experiment: ATPase assay, D137E mutant; assay type: biochemical, pig
T1 construct: made in house; host or cells: HEK293S GnT1- cells (BacMam baculovirus transduction), membrane fraction

[30] = molecular target: H^+,K^+-ATPase D137N (Sus scrofa, UniProt P19156, D138N); experiment: ATPase assay, D137N mutant
[31] = molecular target: T2, H^+,K^+-ATPase WT (Sus scrofa, UniProt P19156); experiment: K^+-competitive inhibition of H^+,K^+-ATPase activity, 96-well ATPase assay, wild-type; assay type: biochemical, pig; conditions: WT
T2 construct: made in house; host or cells: HEK293S GnT1- cells (BacMam baculovirus transduction); permeabilised membrane fractions

[32] = molecular target: H^+,K^+-ATPase N138F (Sus scrofa, UniProt P19156, N139F); experiment: ATPase assay, N138F mutant
[33] = molecular target: H^+,K^+-ATPase L139F (Sus scrofa, UniProt P19156, L140F); experiment: ATPase assay, L139F mutant
[34] = molecular target: H^+,K^+-ATPase D137F (Sus scrofa, UniProt P19156, D138F); experiment: ATPase assay, D137F mutant
[35] = molecular target: H^+,K^+-ATPase Y140L (Sus scrofa, UniProt P19156, Y141L); experiment: ATPase assay, Y140L mutant
[36] = molecular target: H^+,K^+-ATPase Y140I (Sus scrofa, UniProt P19156, Y141I); experiment: ATPase assay, Y140I mutant

H^+,K^+-ATPase N138L, sequence (P19156 whole entry N139L): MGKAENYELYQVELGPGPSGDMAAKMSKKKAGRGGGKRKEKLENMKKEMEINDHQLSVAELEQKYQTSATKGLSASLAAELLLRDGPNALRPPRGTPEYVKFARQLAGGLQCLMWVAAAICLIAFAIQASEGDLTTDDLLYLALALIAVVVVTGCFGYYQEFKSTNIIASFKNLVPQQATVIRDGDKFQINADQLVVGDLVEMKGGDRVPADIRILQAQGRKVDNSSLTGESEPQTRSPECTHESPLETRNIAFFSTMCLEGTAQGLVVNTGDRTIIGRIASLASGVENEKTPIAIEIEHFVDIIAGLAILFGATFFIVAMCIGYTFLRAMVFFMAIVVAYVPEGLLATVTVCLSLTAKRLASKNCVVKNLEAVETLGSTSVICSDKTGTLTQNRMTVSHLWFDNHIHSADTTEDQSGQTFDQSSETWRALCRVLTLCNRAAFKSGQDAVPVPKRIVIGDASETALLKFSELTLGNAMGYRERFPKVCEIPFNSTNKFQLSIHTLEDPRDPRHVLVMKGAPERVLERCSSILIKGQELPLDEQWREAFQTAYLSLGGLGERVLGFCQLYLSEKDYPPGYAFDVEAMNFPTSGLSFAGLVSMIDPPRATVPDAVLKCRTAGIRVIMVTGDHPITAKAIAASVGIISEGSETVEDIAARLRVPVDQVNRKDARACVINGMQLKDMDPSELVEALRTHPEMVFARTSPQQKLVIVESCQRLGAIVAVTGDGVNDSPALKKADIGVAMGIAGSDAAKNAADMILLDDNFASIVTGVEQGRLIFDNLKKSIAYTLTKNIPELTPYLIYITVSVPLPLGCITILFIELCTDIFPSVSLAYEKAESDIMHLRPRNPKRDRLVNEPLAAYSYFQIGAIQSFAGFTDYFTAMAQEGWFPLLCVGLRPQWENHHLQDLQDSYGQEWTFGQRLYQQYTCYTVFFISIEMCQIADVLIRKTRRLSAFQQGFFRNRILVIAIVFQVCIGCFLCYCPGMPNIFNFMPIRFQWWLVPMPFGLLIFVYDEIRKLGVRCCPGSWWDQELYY
H^+,K^+-ATPase N138L, sequence (P18434 whole entry partner): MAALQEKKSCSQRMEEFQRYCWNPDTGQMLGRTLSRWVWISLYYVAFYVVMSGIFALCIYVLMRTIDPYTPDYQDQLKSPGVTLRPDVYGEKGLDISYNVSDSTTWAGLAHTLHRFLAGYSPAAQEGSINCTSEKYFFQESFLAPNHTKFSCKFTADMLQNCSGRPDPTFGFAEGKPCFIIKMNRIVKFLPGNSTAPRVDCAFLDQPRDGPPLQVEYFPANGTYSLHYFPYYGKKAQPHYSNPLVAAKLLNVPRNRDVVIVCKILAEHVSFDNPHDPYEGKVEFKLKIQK
H^+,K^+-ATPase N138F, sequence (P19156 whole entry N139F): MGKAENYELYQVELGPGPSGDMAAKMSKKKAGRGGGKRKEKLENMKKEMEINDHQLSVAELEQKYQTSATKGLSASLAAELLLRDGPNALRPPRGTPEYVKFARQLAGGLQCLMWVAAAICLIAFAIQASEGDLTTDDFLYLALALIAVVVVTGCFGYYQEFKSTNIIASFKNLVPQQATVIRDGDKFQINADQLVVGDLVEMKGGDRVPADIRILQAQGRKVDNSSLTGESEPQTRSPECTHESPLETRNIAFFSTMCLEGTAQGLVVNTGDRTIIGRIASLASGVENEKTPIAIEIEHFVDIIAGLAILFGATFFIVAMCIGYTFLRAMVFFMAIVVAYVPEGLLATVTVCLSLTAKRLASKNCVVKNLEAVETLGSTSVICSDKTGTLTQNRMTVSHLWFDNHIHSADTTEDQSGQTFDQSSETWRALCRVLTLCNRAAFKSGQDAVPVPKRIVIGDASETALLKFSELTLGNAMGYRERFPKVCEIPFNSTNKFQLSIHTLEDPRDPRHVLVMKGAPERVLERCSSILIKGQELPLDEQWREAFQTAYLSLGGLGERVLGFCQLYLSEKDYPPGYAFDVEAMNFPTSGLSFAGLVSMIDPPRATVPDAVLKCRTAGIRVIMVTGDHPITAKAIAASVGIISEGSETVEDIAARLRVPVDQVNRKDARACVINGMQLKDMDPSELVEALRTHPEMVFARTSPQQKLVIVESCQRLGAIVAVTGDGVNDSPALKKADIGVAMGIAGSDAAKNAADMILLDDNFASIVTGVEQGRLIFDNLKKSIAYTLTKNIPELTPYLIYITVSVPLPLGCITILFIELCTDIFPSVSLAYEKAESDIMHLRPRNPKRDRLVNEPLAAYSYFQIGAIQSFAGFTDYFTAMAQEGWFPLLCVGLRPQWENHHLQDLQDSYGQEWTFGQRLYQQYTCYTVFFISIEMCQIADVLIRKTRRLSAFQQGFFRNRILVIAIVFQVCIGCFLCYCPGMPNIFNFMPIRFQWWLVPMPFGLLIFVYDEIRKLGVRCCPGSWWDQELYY
H^+,K^+-ATPase N138F, sequence (P18434 whole entry partner): as the sequence (P18434 whole entry partner) above
H^+,K^+-ATPase A335G, sequence (P19156 whole entry A336G): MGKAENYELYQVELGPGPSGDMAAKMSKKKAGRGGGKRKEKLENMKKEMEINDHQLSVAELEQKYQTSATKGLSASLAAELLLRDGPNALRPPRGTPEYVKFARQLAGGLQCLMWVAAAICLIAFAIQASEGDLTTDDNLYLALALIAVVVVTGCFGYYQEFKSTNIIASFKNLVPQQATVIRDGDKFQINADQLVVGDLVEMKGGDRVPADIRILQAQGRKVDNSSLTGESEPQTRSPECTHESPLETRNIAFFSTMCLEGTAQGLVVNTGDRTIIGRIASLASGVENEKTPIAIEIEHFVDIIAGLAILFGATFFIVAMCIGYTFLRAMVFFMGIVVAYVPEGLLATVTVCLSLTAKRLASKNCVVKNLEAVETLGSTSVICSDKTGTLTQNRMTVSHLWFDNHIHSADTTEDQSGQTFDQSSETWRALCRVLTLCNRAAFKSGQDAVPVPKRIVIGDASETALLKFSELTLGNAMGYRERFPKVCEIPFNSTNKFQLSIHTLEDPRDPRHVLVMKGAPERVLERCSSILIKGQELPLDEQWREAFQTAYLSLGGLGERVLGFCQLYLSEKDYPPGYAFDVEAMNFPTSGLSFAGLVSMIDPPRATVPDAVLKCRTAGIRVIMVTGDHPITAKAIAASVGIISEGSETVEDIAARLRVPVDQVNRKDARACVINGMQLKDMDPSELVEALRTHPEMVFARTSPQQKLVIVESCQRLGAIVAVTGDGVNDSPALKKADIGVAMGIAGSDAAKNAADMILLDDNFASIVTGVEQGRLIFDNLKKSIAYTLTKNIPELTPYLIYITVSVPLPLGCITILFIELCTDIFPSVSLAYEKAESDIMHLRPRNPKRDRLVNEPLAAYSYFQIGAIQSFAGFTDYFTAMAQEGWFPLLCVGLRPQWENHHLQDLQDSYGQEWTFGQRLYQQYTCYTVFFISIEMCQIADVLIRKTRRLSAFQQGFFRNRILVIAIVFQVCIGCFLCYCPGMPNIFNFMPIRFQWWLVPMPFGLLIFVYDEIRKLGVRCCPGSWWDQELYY
H^+,K^+-ATPase A335G, sequence (P18434 whole entry partner): as the sequence (P18434 whole entry partner) above
H^+,K^+-ATPase L139I, sequence (P19156 whole entry L140I): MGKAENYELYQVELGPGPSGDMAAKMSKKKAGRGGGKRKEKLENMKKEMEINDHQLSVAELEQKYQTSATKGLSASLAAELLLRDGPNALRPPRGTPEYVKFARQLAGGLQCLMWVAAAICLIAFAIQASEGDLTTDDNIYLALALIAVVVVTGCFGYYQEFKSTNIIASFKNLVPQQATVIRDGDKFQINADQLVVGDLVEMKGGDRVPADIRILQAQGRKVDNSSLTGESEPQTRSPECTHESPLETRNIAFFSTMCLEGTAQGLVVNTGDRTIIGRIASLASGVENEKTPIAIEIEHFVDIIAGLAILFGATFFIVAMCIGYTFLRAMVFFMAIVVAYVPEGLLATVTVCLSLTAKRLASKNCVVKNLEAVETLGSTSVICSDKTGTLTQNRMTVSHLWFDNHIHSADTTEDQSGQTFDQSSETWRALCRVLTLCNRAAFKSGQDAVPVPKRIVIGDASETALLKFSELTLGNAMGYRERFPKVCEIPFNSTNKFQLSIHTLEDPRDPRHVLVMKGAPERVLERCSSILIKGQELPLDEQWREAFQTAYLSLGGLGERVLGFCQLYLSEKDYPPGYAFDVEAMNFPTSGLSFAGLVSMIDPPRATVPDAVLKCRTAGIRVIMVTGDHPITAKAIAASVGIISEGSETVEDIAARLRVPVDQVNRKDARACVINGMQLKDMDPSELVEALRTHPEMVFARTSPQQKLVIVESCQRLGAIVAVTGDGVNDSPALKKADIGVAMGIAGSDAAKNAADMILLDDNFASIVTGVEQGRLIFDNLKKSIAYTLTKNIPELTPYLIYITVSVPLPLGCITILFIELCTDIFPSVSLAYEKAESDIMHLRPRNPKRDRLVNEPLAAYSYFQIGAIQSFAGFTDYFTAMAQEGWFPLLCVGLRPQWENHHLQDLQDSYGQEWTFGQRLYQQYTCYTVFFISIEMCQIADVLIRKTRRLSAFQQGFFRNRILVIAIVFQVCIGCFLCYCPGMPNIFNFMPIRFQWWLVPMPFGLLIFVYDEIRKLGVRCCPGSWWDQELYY
H^+,K^+-ATPase L139I, sequence (P18434 whole entry partner): as the sequence (P18434 whole entry partner) above

Structure (SMILES): Cc1nc2c(OCc3ccccc3)cccn2c1CC#N [SCH28080]
fold reduced affinity ([1]; L809F vs wild-type, previously reported): more than 90 fold | Ki ([1]; L809F): 6.15 µM | Ki [2]: > 40 µM | affinity (in words) [2]: almost no affinity | fold low apparent affinity (IC 50) [3]: ~ 100 fold and 100 fold | protonation [4]: approximately 2.5% | effect on affinity (in words) [5]: negligible effects

-fold increase in K i compared with wild-type [6]: 7.2 fold | Ki ([6]; global fitting): 23 ± 20 µM | Ki [7]: 28 ± 2 µM | -fold increase in K i compared with wild-type ([7]; D137A): 8.8 fold | Ki [8]: 98 ± 12 µM | -fold increase in K i compared with wild-type ([8]; L809F): 31 fold | Ki [9]: 18 ± 2 µM | -fold increase in K i compared with wild-type ([9]; Y799F): 5.6 fold | Ki [10]: 39 ± 7 µM | -fold increase in K i compared with wild-type ([10]; D137I): 12 fold | IC50 [11]: 110 µM | Ki [12]: 2.4 ± 0.2 µM | -fold increase in K i compared with wild-type ([12]; L141I): 0.8 fold | Ki [13]: 81 ± 15 µM | -fold increase in K i compared with wild-type ([13]; Y799A): 25 fold | Ki [14]: 14 ± 2 µM | -fold increase in K i compared with wild-type ([14]; N138L): 4.4 fold | Ki [15]: 4.2 ± 0.5 µM | -fold increase in K i compared with wild-type ([15]; N138A): 1.3 fold | Ki [16]: 1 ± 0.1 µM | -fold increase in K i compared with wild-type ([16]; A335G): 0.3 fold | Ki [17]: 1.1 ± 0.1 µM | -fold increase in K i compared with wild-type ([17]; L139I): 0.3 fold | Ki [18]: 4.1 ± 0.3 µM | -fold increase in K i compared with wild-type ([18]; D136I): 1.3 fold | Ki [19]: 3.3 ± 0.3 µM | -fold increase in K i compared with wild-type ([19]; L139A): 1.0 fold | Ki [20]: 2.9 ± 0.1 µM | -fold increase in K i compared with wild-type ([20]; D136F): 0.9 fold | Ki [21]: 32 ± 6 µM | -fold increase in K i compared with wild-type ([21]; D137L): 10 fold | Ki [22]: 5.1 ± 0.4 µM | -fold increase in K i compared with wild-type ([22]; D136A): 1.6 fold | Ki [23]: 3.7 ± 0.2 µM | -fold increase in K i compared with wild-type ([23]; Y140F): 1.2 fold | Ki [24]: 71 ± 10 µM | -fold increase in K i compared with wild-type ([24]; A335C/C813A): 22 fold | Ki [25]: 3.7 ± 0.7 µM | -fold increase in K i compared with wild-type ([25]; N138I): 1.2 fold | Ki [26]: 3.3 ± 0.2 µM | -fold increase in K i compared with wild-type ([26]; D136L): 1.0 fold | Ki [27]: 7.3 ± 1 µM | -fold increase in K i compared with wild-type ([27]; Y140A): 2.3 fold | Ki [28]: 2.6 ± 0.2 µM | -fold increase in K i compared with wild-type ([28]; N138D): 0.8 fold | -fold increase in K i compared with wild-type [29]: 1.4 fold | Ki ([29]; high H^+-ATPase activity, K i' determined by K m/V max plot): 4.4 ± 0.4 µM | Ki [30]: 120 ± 30 µM | -fold increase in K i compared with wild-type ([30]; D137N): 38 fold | -fold increase in K i compared with wild-type [31]: 1.0 fold | Ki ([31]; global fitting, mean ± SEM): 3.2 ± 0.3 µM | Ki [32]: 52 ± 9 µM | -fold increase in K i compared with wild-type ([32]; N138F): 16 fold | Ki [33]: 6.6 ± 0.5 µM | -fold increase in K i compared with wild-type ([33]; L139F): 2.1 fold | Ki [34]: 47 ± 6 µM | -fold increase in K i compared with wild-type ([34]; D137F): 15 fold | Ki [35]: 2.7 ± 0.2 µM | -fold increase in K i compared with wild-type ([35]; Y140L): 0.8 fold | Ki [36]: 2.1 ± 0.2 µM | -fold increase in K i compared with wild-type ([36]; Y140I): 0.7 fold
Structure (SMILES): Cc1cn2cccc(OCc3ccccc3)c2n1 [SCH-CN^−]
